Laboratory results from BindingDB's records for doi:10.1016/j.bmcl.2006.08.060 (Lucknow University, 2006).

Tested on: Enterococcus faecalis
Assay: Antibacterial activity against Streptococcus faecalis by broth microdilution technique

CNC(C)[C@@H]1CC[C@@H](N)[C@@H](O[C@H]2[C@H](O)[C@@H](O[C@H]3OC[C@](C)(O)[C@H](NC)[C@H]3O)[C@H](N)C[C@@H]2N)O1 (stereo partly specified) [Gentamicin]
IC50: 445 nM
